row,melting point,Structure (SMILES)
1,170 to 172 °C,N#CCCNC(=O)C1=CC(CF)(CF)Oc2ccc(C#N)cc21
2,110 to 111 °C,CCOC(=O)c1ccccc1CCC(=O)Nc1cccc(/C=C/c2nc(C3CCC3)cs2)c1
3,195 to 198 °C,Cc1nc2cccc(OCC(C)(C)NC(=O)c3cccc(O)c3)c2c(N)c1C(=O)O
4,54 to 57 °C,CN(C)S(=O)(=O)OCCOc1ccc(Cl)cc1
5,182 to 184 °C,CCOCc1nc2c(N)nc3cc(N4CCCCC4)ccc3c2n1CCCOC(C)C
6,214 °C,N#CC1=C(c2cccs2)Nc2n[nH]cc2C1c1cccc2ccccc12 (centres undefined)
7,50 to 52 °C,COC(=O)CCOc1ccc(CNC(=O)[C@@H]2Cc3ccccc3N2S(=O)(=O)c2ccc(C(C)(C)C)cc2)cc1
8,130 to 132 °C,CCCOc1ccccc1-c1nc2n(C3CCCC3)[nH]c(C)c-2c(=O)n1
9,117 to 118 °C,O=C(O)CCCCCCCC(=O)Nc1cc(Cl)ccc1O
10,145 °C,COc1cc(C(=O)NS(=O)(=O)c2ccccc2)ccc1Cc1nn(C)c2ccc(NC(=O)OC3CCCC3)cc12
11,104 to 106 °C,CS(=O)(=O)NCCc1ccc2c(c1)C(=O)c1ccccc1CO2
12,278 to 280 °C,CS(=O)(=O)C(CC(S(C)(=O)=O)S(C)(=O)=O)S(C)(=O)=O
13,98 to 99 °C,COC1CCC(=O)N1S(=O)(=O)C=Cc1ccccc1 (centres undefined)
14,163 to 167 °C,COc1ccccc1Cc1cnc(NCCSCc2nc[nH]c2C)[nH]c1=O
15,115 to 120 °C,CCCCCCCCCCCCCCCCCCC1CC(=O)N(c2ccc([N+](=O)[O-])cc2O)C1=O (centres undefined)
16,201 to 203 °C,CCOc1cc2cc3c(Nc4cc(OC)c(Cl)cc4C)c(C#N)cnc3cc2cc1OCCN1CCOCC1
17,170 to 171 °C,O=c1nc(-c2ccc(-c3ccccc3)cc2)sc2ccccc12
18,169 to 170 °C,Cc1cn(-c2cccc(OCCOS(N)(=O)=O)c2)cn1
19,223 to 224 °C,CS(=O)(=O)Nc1cc(NS(C)(=O)=O)cc([N+](=O)[O-])c1
20,147 to 148 °C,Cc1noc(NS(=O)(=O)c2ccccc2-c2ccsc2)c1C
21,103 to 104 °C,Cc1oc(-c2ccccc2)nc1COc1cccc(/C=C/C=O)c1
22,205 to 207 °C,Nc1ccccc1NC(=O)c1cc2cc(OCc3ccccn3)ccc2s1
23,99 to 100 °C,O=S1(=O)CC2(CCCCC2)[C@@H](O)[C@H](c2ccccc2)c2ccccc21 (relative stereo)
24,147 to 150 °C,COc1cc(Cl)c(C(=O)c2ccc([N+](=O)[O-])cc2)c(Cl)c1

row,melting point,Structure (SMILES)
1,147 to 150 °C,Cc1ncncc1C(=O)Nc1cc(F)c(-n2nc(C(F)(F)F)cc2C2CC2)c(F)c1
2,155 °C,COc1ccc(SC(C(=O)NO)c2ccccc2)cc1 (centres undefined)
3,95 to 97 °C,CN1Cc2cccc(Cl)c2S1(=O)=O
4,139 to 140 °C,COC(=O)Cc1sc(S)nc1C
5,140 to 141 °C,CCCn1c(=O)c(/C=C/C(=O)OCC)c2n(c1=O)CCS2
6,166 °C,c1ccc2c(c1)CCn1ccnc1C2=C1CCN(CCn2cccc2)CC1
7,104 °C,COc1ccc(N)c(S)c1
8,128 to 130 °C,Cc1scnc1-c1cc(C(C)(C)C)c(O)c(C(C)(C)C)c1
9,166 to 170 °C,CC(C)c1ccc(NC(=O)Oc2ccc3c(c2)CCN3)cc1
10,209 to 213 °C,O=C(Nc1ccc(-n2ccnc2)cc1)Nc1ccc(C(F)(F)F)cc1
11,121 °C,CCOC(=O)C1=C(N)N=C(OCC)C(C(=O)OCC)C1c1cccc(Cl)c1 (centres undefined)
12,192 to 193 °C,O=C(CCCOc1cccc(CN2CCCCC2)c1)Nc1nc(CCc2ccccc2)n[nH]1
13,163 to 165 °C,Cc1noc(C)c1C(=O)Nc1ccc(-n2nc(C(F)(F)F)cc2C2CC2)c(F)c1
14,172 to 173 °C,COc1ccc(N)cc1-c1nc(C)c(-c2cccnc2)[nH]1
15,97 to 99 °C,Cc1ccccc1C1CN(C(=O)OC(C)(C)C)CCC1=O (centres undefined)
16,206 to 210 °C,O=C(O)c1cc(=O)c2cc(F)ccc2[nH]1
17,254 to 255 °C,OCc1ccc2c(c1)C1(c3ccccc3-2)c2ccccc2-c2ccc(CO)cc21
18,118 to 119 °C,CC1(C)C2CC=C(c3ccc(C(=O)N4Cc5cccn5Cc5ccccc54)cc3)C1C2 (centres undefined)
19,180 to 181 °C,COc1ccc(NC2SC(=O)NC2=O)cc1 (centres undefined)
20,> 300 °C,O=C(O)c1cc(=O)c2cc3[nH]c(=O)oc3cc2[nH]1
21,145 to 147 °C,CCOC(=O)C1=C(C)NC(CS)=C(C(=O)OCC)C1c1cccc([N+](=O)[O-])c1 (centres undefined)
22,110 to 111 °C,CCOC(=O)Cn1cc(Cc2nc3c(F)c(F)cc(F)c3s2)c2ccccc21
23,134 to 135 °C,CNC(=O)N(Cc1ccc(OCCc2nc(-c3ccccc3)oc2C)cc1)OC(=O)OC
24,97 to 102 °C,COC(=O)c1sc(C)c(C#N)c1N(C(=O)OC(C)(C)C)C(=O)OC(C)(C)C

row,melting point,Structure (SMILES)
1,177 to 179 °C,CC(C)NCC(O)COc1ccc2c(=O)cc(-c3ccc(OCc4ccccc4)c(OCc4ccccc4)c3)oc2c1 (centres undefined)
2,222 to 223 °C,CC1CC(=O)NN=C1c1ccc(NC(=O)C2CC2(C)C)cc1 (centres undefined)
3,105 to 110 °C,Nc1ccccc1NS(=O)(=O)c1cc(C(=O)O)cc(NCc2ccco2)c1Oc1ccccc1
4,208 to 210 °C,O=[N+]([O-])c1cccc(CSc2nc3cnccc3[nH]2)c1
5,138 to 139 °C,CNc1ccc(C2OC(C)(C)N=C2c2ccccc2)cc1 (centres undefined)
6,282 to 284 °C,Cc1cc(NS(=O)(=O)c2n[nH]c(NC=O)n2)ccc1Br
7,67 °C,CCN(CC)CCCNc1ccc(-c2ccnc(Nc3cc(OC)c(OC)c(OC)c3)n2)cn1
8,183 to 185 °C,NS(=O)(=O)c1cc(C(F)(F)F)cc(C(F)(F)F)c1
9,234 to 236 °C,O=C(c1ccc(Nc2ccnc3cc(C(F)(F)F)ccc23)cc1)N1CCN(S(=O)(=O)c2ccc(Cl)cc2)CC1
10,32 to 33 °C,C=C(C)COc1ccc(C=CC(=O)OCCCC)cc1
11,233 to 234 °C,Cc1ccc(-c2c(CNC(=O)OC(C)(C)C)n(CC(C)C)c(=O)c3ccc(O)cc23)cc1
12,205 to 207 °C,CCOC(=O)C1=C(C)NC(C)=C(C(=O)OCC)C1c1ccccc1/C=C(\C)C(=O)O
13,123 °C,CC(=O)Nc1cc(C)cc(N)c1
14,90 °C,Cn1nc(-c2cc(CO)c(Cl)cc2F)c(Cl)c1C(F)(F)F
15,115 to 117 °C,CCC1(C)OC(c2ccc(S(C)(=O)=O)cc2)=C(c2ccccc2)C1=O (centres undefined)
16,276 to 278 °C,CC(=O)OC1(C(C)=O)CCC2C3C=C(Cl)C4=CC(=O)OC(O)C4(C)C3CCC21C (centres undefined)
17,99 to 105 °C,CCCCCCCCCCCCc1ccc2c(c1)C(=O)c1ccccc1C2=O
18,> 270 °C,CCCC(=O)Nc1ccc(CCn2c(=O)n(CCC)c(=O)c3[nH]c(C4CCCC4)nc32)cc1
19,146 to 147 °C,C=C1CCCCCCCSC[C@@H](C(=O)OCC)NC1=O
20,168 to 171 °C,OCc1nc2n(n1)-c1ccccc1N(c1cccc(C(F)(F)F)c1)C2
21,178 to 180 °C,CCCC(NS(=O)(=O)c1ccc(C)cc1)P(=O)(Oc1ccccc1)Oc1ccccc1 (centres undefined)
22,128 to 129 °C,CCOC(=O)CN1CCN(CCNc2ncc3ncnc(Nc4ccc(F)c(Cl)c4)c3n2)CC1
23,81 to 82 °C,CCOC(=O)C(Cc1ccc(CC(F)(F)C(F)(F)F)cc1)C(=O)c1cccc(Cl)c1 (centres undefined)
24,308 °C,Cc1cc2ccccn2c1C(=O)c1ccc2c(c1)c(=O)c(C(=O)O)cn2C

row,melting point,Structure (SMILES)
1,105 to 110 °C,COc1cccc2cc(CNCCNC(=O)C34CC5CC(CC(C5)C3)C4)oc12
2,126 to 127 °C,Cc1cccc(NC(=O)CN2CCN(c3ccccn3)CC2)c1
3,136 °C,OC(COc1ccc(Cl)cc1Cl)(COc1ccc(Cl)cc1Cl)Cn1cncn1
4,280 to 281 °C,N#Cc1c(-c2ccccc2)c(-c2ccccc2)n[nH]c1=O
5,220 to 225 °C,NCC1(c2onc(-c3ccc(O)cc3)c2-c2ccccc2)CC1
6,220 to 222 °C,N#Cc1c2c(c3c(c1N1CCCC1)CCc1ccccc1-3)-c1ccccc1C2
7,246 °C,Cc1ccccc1C1C(C#N)=C(c2ccccc2)Nc2n[nH]cc21 (centres undefined)
8,174 to 176 °C,O=C(CCCCCCCNC(=O)c1cn2c3c(cccc13)CCC2)NO
9,208 to 209 °C,CNC(=O)n1ncc2ccc(NC(=O)/C=C/c3ccc(C(C)(C)C)cc3)cc21
10,169 to 171 °C,CCN(CC)c1ccc(C2(N(c3ccccc3)c3ccc(NC(C)=O)cc3)OC(=O)c3ccccc32)c(C)c1 (centres undefined)
11,> 300 °C,NC(=O)c1cc(-c2ccccc2)n[nH]c1=O
12,103 to 104 °C,COc1c(C)cc2c(c1C)C(C)(C)CN2C(=O)C(C)(C)C
13,110 to 111 °C,CC(C)(CO)C(=O)C(Oc1ccc(Cl)cc1)n1cncn1 (centres undefined)
14,183 to 185 °C,c1cnc2ccc(Cn3nnc4ccc(-c5ccc(N6CCOCC6)nc5)nc43)cc2c1
15,397 to 399 °C,O=C(O)c1ccc2nc(-c3ccc(F)cc3)[nH]c(=O)c2c1
16,100 to 102 °C,N#Cc1cc([N+](=O)[O-])ccc1N1CCNCC1CCO (centres undefined)
17,214 °C,Cc1ccc(S(=O)(=O)NC(C)(C)CO)cc1NC(=O)c1cnn2c(C(F)F)cc(-c3ccc(C(F)(F)F)cc3)nc12
18,126 to 128 °C,CCOC(=O)C1Cc2c([nH]c3ccccc23)CN1 (centres undefined)
19,154 to 155 °C,OCCNc1cc(Nc2ccc(Nc3ccccc3)cc2)ncn1
20,163 to 165 °C,Fc1ccc(CN2CCC(Nc3ccc(C(F)(F)F)nn3)CC2)cc1
21,207 to 209 °C,COc1ccc(Cc2ccc3nc(N)nc(N)c3c2)cc1
22,280 °C,COc1cc(C2CN(c3cc4c(cc3F)ncc3c4c(=O)c(C(=O)O)cn3C)CCN2)ccc1OCc1ccccc1 (centres undefined)
23,230 °C,O=[N+]([O-])c1ccc(Cl)c(C=Cc2nc3ccccc3o2)c1

row,Structure (SMILES),melting point
1,COc1ccc(C2CNCc3c2ccc(OC)c3Cl)cc1OC (centres undefined),130 to 132 °C
2,CCC(C)(N)Cc1c[nH]c2ccccc12 (centres undefined),112 °C
3,COc1cccc(OC(=O)c2ncn3c2[C@@H]2CCCN2C(=O)c2c(Cl)cccc2-3)c1,184 to 185 °C
4,C=CCN1CCc2c([nH]c3ccccc23)C(C(=O)OC)C1 (centres undefined),105 to 108 °C

# From a melting point compilation (Tetko et al.; mined from patent text by program, amines drawn as free bases though some values may be those of a salt)
